The values below are quoted from earlier work in PMC10651166 (Journal of acquired immune deficiency syndromes (1999), 2023).

This series deals with wild-type virus (HIV). The settings on record: protein-adjusted.

Values after ≈ are worked out from the molar mass of the structure shown.

For orientation: EC50 means the concentration giving half of the maximal effect. Regarding `CC(C)CN(C[C@@H](O)[C@H](Cc1ccccc1)NC(=O)O[C@H]1CO[C@H]2OCC[C@H]21)S(=O)(=O)c1ccc(N)cc1` [Darunavir], the EC50 is 0.055 µg/mL (≈ 0.1 µM).
